In brackets after ≈: the same amount, converted by molar mass. Where a SMILES comes first, the peptide text is derived from it.
Assays:
IL-1β = IL-1β in ear homogenate, ELISA; assay type: in vivo, Kunming mice
Protocol: (§1) Ears of Kunming mice were injected with live P. acnes (ATCC 6919) as described above. The ear was excised on day 1 to day 5 after bacterial injection respectively, and then homogenized in 0.9% salt water (1 ml per ear) with a hand tissue grinder. The supernatant was collected after the centrifugation at 2000 × g for 10 min and then was used for cytokine measurement. The concentration of TNF-α and IL-1β was measured by using enzyme-linked immunosorbent assay kits (Excell Bio, Shanghai, China).

P. acnes (ATCC6919) = experiment: P. acnes colonization within mouse ear (CFU count); assay type: in vivo, Kunming mice; conditions: for P. acnes colonized within the ear: mean of four experiments
Protocol: As described previously, P. acnes (ATCC6919) was grown to the exponential-phase in BHI broth and then centrifuged at 1000 g for 10 min. The bacterium pellet was then washed twice and re-suspended in 0.9% salt water (5×10^8 CFU/ml). Kunming mice (20 ± 2 g) were anesthetised by intraperitoneal (IP) administration of ketamine (50 mg/kg) and xylazine (15 mg/kg), and then 20 µl P. acnes solution was intradermally injected into left ears of the mice. Right ears received the same volume of 0.9% salt water. Placebo or 0.2% LZ1 gel (Polyethylene Glycol (PEG) 400: PEG 4000, 1:1) was applied on the surface of right ear skin after injection with P. acnes or saline. […] Ear thickness after 24 h bacterial injection was measured using a micro caliper.
To determine P. acnes number in the ear, the left ear was cut off after 24 h bacterial injection and the mice were sacrificed immediately by cervical dislocation. The ears were wiped to remove gel and then homogenized in 0.9% salt water (1 ml per ear) with a hand tissue grinder. CFUs of P. acnes in the ear were enumerated by plating serial dilutions of the homogenate on BHI plates and the bacterial numbers were counted after 72 h incubation under anaerobic conditions at 37°C.
To further investigate the therapeutical effect, the increase in ear thickness and the P. acnes number in the ear after bacterial injection were determined continuously on day 2 to day 5 as described above. […] All the experimental protocols to use animals were approved by the Animal Care and Use Committee at Kunming Institute of Zoology, Chinese Academy of Sciences.

[1] = tested on: P. acnes (ATCC6919)-induced ear swelling; experiment: P. acnes-induced ear swelling in mice; assay type: in vivo, Kunming mice; conditions: mean of four experiments
TNF-α = TNF-α in ear homogenate, ELISA; assay type: in vivo, Kunming mice; conditions: day 1 to day 5, epicutaneous 0.2% gel, in words
Protocol: as §1

[2] = tested on: infiltrated inflammatory cells; experiment: Histological check of mouse ears (HE stain); assay type: in vivo, Kunming mice; conditions: 24 h after P. acnes challenge, epicutaneous 0.2% gel, in words
From the text: Ears of Kunming mice were excised and fixed in neutral-buffered 10% formalin solution and embedded in paraffin by routine procedures. The slides were cut at approximately 4 µm and stained routinely with haematoxylin and eosin (HE). Images were obtained using a Nikon Eclipse 80i microscope (Nikon, Japan).

[3] = Effect of human plasma on antibacterial activity (inhibition zone); assay type: in vitro ADME; conditions: 100 µM, 37°C, inhibition zone on P. acnes ATCC6919, S. epidermidis 09A3726, S. aureus 09B2499, three experiments
Protocol: LZ1 or human cathelicidin antimicrobial peptide LL-37 (control) was mixed with human plasma (final concentration 100 µM) for 0, 0.5, 1, 2, 4, 6 and 8 hours at 37°C, respectively. Residual antibacterial activity was evaluated by using 10 µl aliquot of the mixture to measure inhibitory zone on bacterial growth on BHI or LB broth containing 0.7% agar as previously described. The diameters of inhibition zones were recorded after 72-hour incubation for P. acnes and 24-hour incubation for S. epidermidis and S. aureus, respectively.

S. aureus 09B2499 = conditions: LB broth, aerobic, 37°C, 24 or 48 h, A600; mean of three independent experiments in duplicates
human red blood cells = conditions: up to 320 µg/ml, 37°C, 30 min, A540, relative to 1% Triton X-100, mean of five experiments
Protocol: Hemolysis assay was undertaken using human red blood cells in liquid medium as our previous reports. Serial dilutions of testing sample were incubated with human red cells at 37°C. After the incubation for 30 min, the cells were centrifuged and the absorbance in the supernatant was measured at 540 nm. Maximum hemolysis was determined by adding 1% Triton X-100 to a sample of cells. Hemolysis of testing samples was calculated as the percentage of cytotoxicity of Triton X-100.

[4] = tested on: Human HaCaT keratinocyte cells; conditions: 20 to 200 µg/ml, 24-h treatment, MTT, A570, mean of five experiments
Protocol: Human HaCaT keratinocyte cells (1×10^5 cells/ml, obtained from Cell Bank of Kunming Institute of Zoology, Chinese Academy of Sciences) were cultured in 96-well plates with Dulbecco’s modified Eagle’s medium (DMEM, Gibco) containing 10% fetal calf serum and penicillin (100 u/ml)-streptomycin (100 mg/ml) at 37°C in a humidified 5% CO2 atmosphere. Cell viability was evaluated by conventional 3-(4, 5-dimethyl-2-thiazolyl)-2, 5-diphenyl-2H-tetrazolium bromide (MTT) reduction assays. After a 24-h treatment by testing sample, 20 µl of MTT (5 mg/ml) was added to each well. The MTT solution was then removed and 200 µl dimethyl sulfoxide (DMSO) was added to solubilize the MTT-formazan cristals in living cells. The absorbance at 570 nm of the resulting solution was measured. The experiments were performed in triplicate.

[5] = tested on: P. acnes (IS, DR), clinically isolated strain with clindamycin resistance; conditions: clindamycin-resistant clinical isolate; BHI broth, anaerobic, 37°C, 72 h, A600; mean of three independent experiments in duplicates; ND = no detectable activity
Protocol: (§2) The strains of P. acnes were cultured in brain heart infusion (BHI) broth (HKM, Guangzhou, China) with 1% glucose at 37°C under an anaerobic atmosphere using MGC Anaeropack systems (Mitsubishi, Gas Chemical Co., Inc, Japan), respectively. […] S. epidermidis (09A3726 and 09B2490) and S. aureus (ATCC 2592) were grown in LB (Luria-Bertani) broth as our previous report.
(§3) Briefly, samples were prepared as a stock solution in 0.9% salt water at a series of concentration. 890 µl special broth (BHI broth for P. acnes, LB broth for S. epidermidis and S. aureus), 100 µl bacterial suspension (10^8 CFU/ml) and 10 µl test sample were put together in the test tube under anaerobic conditions at 37°C for 72 h for P. acnes and under aerobic conditions at 37°C for 24 or 48 h for S. epidermidis and S. aureus. An absorbance at 600 nm was measured by a microplate reader to estimate bacterial growth. The MIC was defined as the lowest concentration of test sample completely inhibiting microorganism’s growth.

S. epidermidis 09A3726 = conditions: LB broth, aerobic, 37°C, 24 or 48 h, A600; mean of three independent experiments in duplicates; ND = no detectable activity
Protocol: as §2, §3

S. epidermidis 09B2490 = conditions: LB broth, aerobic, 37°C, 24 or 48 h, A600; mean of three independent experiments in duplicates
Protocol: as §2, §3

P. acnes ATCC6919 = conditions: BHI broth, anaerobic, 37°C, 72 h, A600; mean of three independent experiments in duplicates; ND = no detectable activity
Protocol: as §2, §3

P. acnes ATCC11827 = conditions: BHI broth, anaerobic, 37°C, 72 h, A600; mean of three independent experiments in duplicates; ND = no detectable activity
Protocol: as §2, §3

## CCC[C@@H]1C[C@@H](C(=O)N[C@@H]([C@H]2O[C@H](SC)[C@H](OP(=O)(O)O)[C@@H](O)[C@H]2O)[C@H](C)Cl)N(C)C1 [clindamycin, clindamycin phosphate]
IL-1β; day 1, 1 ml saline per ear, vehicle 483, three experiments
  IL-1β concentration in mouse ear: 346 pg/mL
IL-1β; day 2, 1 ml saline per ear, vehicle 221, three experiments
  IL-1β concentration in mouse ear: 83 pg/mL
IL-1β; day 3, 1 ml saline per ear, vehicle 48, three experiments
  IL-1β concentration in mouse ear: 43 pg/mL
IL-1β; day 4, 1 ml saline per ear, vehicle 30, three experiments
  IL-1β concentration in mouse ear: 45 pg/mL
IL-1β; day 5, 1 ml saline per ear, vehicle 41, three experiments
  IL-1β concentration in mouse ear: 46 pg/mL
P. acnes (ATCC6919); Day 1, 0.2% gel epicutaneous
  P. acnes colonized within the ear: 360±77 10^3 CFU per ear
P. acnes (ATCC6919); Day 2, 0.2% gel epicutaneous once per day
  P. acnes colonized within the ear: 32±4.1 10^3 CFU per ear
P. acnes (ATCC6919); Day 3, 0.2% gel epicutaneous once per day
  P. acnes colonized within the ear: 14±1.7 10^3 CFU per ear
P. acnes (ATCC6919); Day 4, 0.2% gel epicutaneous once per day
  P. acnes colonized within the ear: 6±0.5 10^3 CFU per ear
P. acnes (ATCC6919); Day 5, 0.2% gel epicutaneous once per day
  P. acnes colonized within the ear: 1.5±0.1 10^3 CFU per ear
P. acnes (ATCC6919); day 2, versus vehicle
  reduction in the number of P. acnes colonized within the ear: 58.9%
P. acnes (ATCC6919); day 3, versus vehicle
  reduction in the number of P. acnes colonized within the ear: 58.8%
P. acnes (ATCC6919); day 4, versus vehicle
  reduction in the number of P. acnes colonized within the ear: 71.4%
P. acnes (ATCC6919); day 5, versus vehicle
  reduction in the number of P. acnes colonized within the ear: 50%
[1]; day 1 after P. acnes injection, 0.2% gel epicutaneous
  ear thickness, % of the control (un-challenged): 147%
[1]; day 2, 0.2% gel epicutaneous once per day
  ear thickness, % of the control (un-challenged): 145%
[1]; day 3, 0.2% gel epicutaneous once per day
  ear thickness, % of the control (un-challenged): 130%
[1]; day 4, 0.2% gel epicutaneous once per day
  ear thickness, % of the control (un-challenged): 125%
[1]; day 5, 0.2% gel epicutaneous once per day
  ear thickness, % of the control (un-challenged): 105%
TNF-α
  effect on TNF-α secretion induced by P. acnes challenge: no inhibitory effect
[2]
  number of infiltrated inflammatory cells: decreased infiltrated inflammatory cells

## LL-37: human cathelicidin antimicrobial peptide LL-37 (control)
[3]; 1 hour
  antibacterial activity after incubation with human plasma: completely lost its antibacterial activity

## CC(C)[C@H](N)C(=O)N[C@@H](CCCCN)C(=O)N[C@@H](CCCNC(=N)N)C(=O)N[C@@H](Cc1c[nH]c2ccccc12)C(=O)N[C@@H](CCCCN)C(=O)N[C@@H](CCCCN)C(=O)N[C@@H](Cc1c[nH]c2ccccc12)C(=O)N[C@@H](Cc1c[nH]c2ccccc12)C(=O)N[C@@H](CCCNC(=N)N)C(=O)N[C@@H](CCCCN)C(=O)N[C@@H](Cc1c[nH]c2ccccc12)C(=O)N[C@@H](CCCCN)C(=O)N[C@@H](CCCCN)C(=O)N[C@@H](Cc1c[nH]c2ccccc12)C(=O)N[C@H](C(N)=O)C(C)C [LZ1] (H-VKRWKKWWRKWKKWV-NH2)
S. aureus 09B2499
  MIC: 2.3 µg/mL (≈ 1.03 µM)
Human red blood cells
  hemolytic activity: no more than 5.2%
[4]
  effects on cell viabilities (cytotoxicity): no more than 5.6%
[3]; 8 hours
  antibacterial activity after incubation with human plasma: could not be significantly affected
[5]
  MIC: 0.6 µg/mL (≈ 0.269 µM)
S. epidermidis 09A3726
  MIC: 4.7 µg/mL (≈ 2.11 µM)
S. epidermidis 09B2490
  MIC: 2.3 µg/mL (≈ 1.03 µM)
P. acnes ATCC6919
  MIC: 0.6 µg/mL (≈ 0.269 µM)
P. acnes ATCC11827
  MIC: 0.6 µg/mL (≈ 0.269 µM)
